Publication PMC10035904, “Synthesis of novel sulphamethoxazole derivatives and exploration of their anticancer and antimicrobial properties” (PLOS ONE, 2023)

Experiments:
[1] = tested on: HF, PPC-1, and CaKi-1 cells; test: MTT cell viability screen at 100 μM (cell line not given); type: cell-based, human; conditions: 72 h, cell line not stated
Method: The effect of synthesized compounds on cell viability was studied using 3-(4,5-dimethylthiazol-2-yl)-2,5-diphenyltetrazolium bromide (MTT; Sigma-Aldrich Co., St Louis, MO, USA) assay, as described elsewhere. Briefly, HF, PPC-1, and CaKi-1 cells were seeded in 96-well plates (Corning) in triplicates at a volume of 100 μL at a concentration of 4 × 10^3 cells/well. After 24 h of incubation, the cells were treated with 100 μM of tested compounds. After 72 h, the MTT reagent (at 0.5 mg/mL concentration) has been added to the wells, and cells were incubated for 4 h. Then the medium was aspirated, and the formed purple crystals were dissolved in 100 μL DMSO (Sigma-Aldrich Co.). The absorbance was measured at 570 and 630 nm using a multi-detection microplate reader. The compound effect on cell viability was calculated using a formula (1): Relativecellviability%=A−A0/ANC−A0 (1) Where: […]

SMILES	melting point [°C]	reduced cell viability up to about [1]
Cc1cc(NS(=O)(=O)c2ccc(NCCC(=O)O)cc2)no1 [Compound 2, 3-((4-(N-(5-methylisoxazol-3-yl)sulfamoyl)phenyl)amino)propanoic acid]	188 to 189	–
COC(=O)CCNc1ccc(S(=O)(=O)Nc2cc(C)on2)cc1 [Compound 3, Methyl 3-((4-(N-(5-methylisoxazol-3-yl)sulfamoyl)phenyl)amino)propanoate]	148 to 149	–
Cc1cc(NS(=O)(=O)c2ccc(N3CCC(=O)NC3=S)cc2)no1 [Compound 6, N-(5-methylisoxazol-3-yl)-4-(4-oxo-2-thioxotetrahydropyrimidin-1(2H)-yl)benzenesulfonamide]	240 to 241	–
Cc1cc(NS(=O)(=O)c2ccc(N(CCC(=O)O)C(N)=S)cc2)no1 [Compound 6a, 3-(1-(4-(N-(5-methylisoxazol-3-yl)sulfamoyl)phenyl)thioureido)propanoic acid]	182 to 183	–
Cc1cc(NS(=O)(=O)c2ccc(NC=CC(=O)Nc3ccc(S(N)(=O)=O)cc3)cc2)no1 [Compound 7, 3-((4-(N-(5-methylisoxazol-3-yl)sulfamoyl)phenyl)amino)-N-(4-sulfamoylphenyl)propenamide]	213 to 214	–
Cc1cc(NS(=O)(=O)c2ccc(NC=CC(=O)Nn3c(C)ccc3C)cc2)no1 [Compound 8, N-(2,5-dimethyl-1H-pyrrol-1-yl)-3-((4-(N-(5-methylisoxazol-3-yl)sulfamoyl)phenyl)amino)propenamide]	118 to 119	–
Cc1cc(C)n(C(=O)CCNc2ccc(S(=O)(=O)Nc3cc(C)on3)cc2)n1 [Compound 9, 4-((3-(3,5-Dimethyl-1H-pyrazol-1-yl)-3-oxopropyl)amino)-N-(5-methylisoxazol-3-yl)benzenesulfonamide]	144 to 145	–
Cc1cc(NS(=O)(=O)c2ccc(NCCC(=O)NNC(=O)Nc3ccccc3)cc2)no1 [Compound 10, 2-(3-((4-(N-(5-methylisoxazol-3-yl)sulfamoyl)phenyl)amino)propanoyl)-N-phenylhydrazine-1-carboxamide]	204 to 205	–
Cc1cc(NS(=O)(=O)c2ccc(NCCC(=O)NNC(=S)Nc3ccccc3)cc2)no1 [Compound 11, 2-(3-((4-(N-(5-methylisoxazol-3-yl)sulfamoyl)phenyl)amino)propanoyl)-N-phenylhydrazine-1-carbothioamide]	183 to 184	–
Cc1cc(NS(=O)(=O)c2ccc(NCCc3n[nH]c(=O)n3-c3ccccc3)cc2)no1 [Compound 12, N-(5-methylisoxazol-3-yl)-4-((2-(5-oxo-4-phenyl-4,5-dihydro-1H-1,2,4-triazol-3-yl)ethyl)amino)-benzenesulfonamide]	188 to 189	–
Cc1cc(NS(=O)(=O)c2ccc(NCCc3n[nH]c(=S)n3-c3ccccc3)cc2)no1 [Compound 13, N-(5-methylisoxazol-3-yl)-4-((2-(4-phenyl-5-thioxo-4,5-dihydro-1H-1,2,4-triazol-3-yl)ethyl)amino)-benzenesulfonamide]	222 to 223	–
Cc1cc(NS(=O)(=O)c2ccc(NCCC(=O)NN=C3C(=O)Nc4ccccc43)cc2)no1 [Compound 14, N-(5-methylisoxazol-3-yl)-4-((3-oxo-3-(2-(2-oxoindolin-3-ylidene)hydrazineyl)propyl)amino)-benzenesulfonamide]	209 to 210	–

Further lines, with some results ahead:

melting point [°C]	SMILES	reduced cell viability up to about [1]
199 to 200	Cc1cc(NS(=O)(=O)c2ccc(NCCC(=O)NN=Cc3ccccc3)cc2)no1 [Compound 15a, 4-((3-(2-Benzylidenehydrazineyl)-3-oxopropyl)amino)-N-(5-methylisoxazol-3-yl)benzenesulfonamide]	–
193 to 194	Cc1cc(NS(=O)(=O)c2ccc(NCCC(=O)NN=Cc3ccccc3O)cc2)no1 [Compound 15b, 4-((3-(2-(2-Hydroxybenzylidene)hydrazineyl)-3-oxopropyl)amino)-N-(5-methylisoxazol-3-yl)benzene-sulfonamide]	–
218 to 219	Cc1cc(NS(=O)(=O)c2ccc(NCCC(=O)NN=Cc3ccc(O)cc3)cc2)no1 [Compound 15c, 4-((3-(2-(4-Hydroxybenzylidene)hydrazineyl)-3-oxopropyl)amino)-N-(5-methylisoxazol-3-yl)benzene-sulfonamide]	–
213 to 214	Cc1cc(NS(=O)(=O)c2ccc(NCCC(=O)NN=Cc3ccc(F)cc3)cc2)no1 [Compound 15d, 4-((3-(2-(4-Fluorobenzylidene)hydrazineyl)-3-oxopropyl)amino)-N-(5-methylisoxazol-3-yl)benzene-sulfonamide]	–
202 to 203	Cc1cc(NS(=O)(=O)c2ccc(NCCC(=O)NN=Cc3ccccc3Cl)cc2)no1 [Compound 15e, 4-((3-(2-(2-Chlorobenzylidene)hydrazineyl)-3-oxopropyl)amino)-N-(5-methylisoxazol-3-yl)benzene-sulfonamide]	about 40%
210 to 211	Cc1cc(NS(=O)(=O)c2ccc(NCCC(=O)NN=Cc3ccc(Cl)cc3)cc2)no1 [Compound 15f, 4-((3-(2-(4-Chlorobenzylidene)hydrazineyl)-3-oxopropyl)amino)-N-(5-methylisoxazol-3-yl)benzene-sulfonamide]	–
206 to 207	COc1ccc(C=NNC(=O)CCNc2ccc(S(=O)(=O)Nc3cc(C)on3)cc2)cc1 [Compound 15g, 4-((3-(2-(4-Methoxybenzylidene)hydrazineyl)-3-oxopropyl)amino)-N-(5-methylisoxazol-3-yl)benzene-sulfonamide]	–
208 to 209	Cc1cc(NS(=O)(=O)c2ccc(NCCC(=O)NN=Cc3cccc([N+](=O)[O-])c3)cc2)no1 [Compound 15h, 4-((3-(2-(3-Nitrobenzylidene)hydrazineyl)-3-oxopropyl)amino)-N-(5-methylisoxazol-3-yl)benzene-sulfonamide]	–
210 to 211	Cc1cc(NS(=O)(=O)c2ccc(NCCC(=O)NN=Cc3cc([N+](=O)[O-])ccc3Cl)cc2)no1 [Compound 15i, 4-((3-(2-(2-Chloro-5-nitrobenzylidene)hydrazineyl)-3-oxopropyl)amino)-N-(5-methylisoxazol-3-yl)benzenesulfonamide]	–
214 to 215	Cc1cc(NS(=O)(=O)c2ccc(NCCC(=O)NN=Cc3ccc([N+](=O)[O-])cc3)cc2)no1 [Compound 15j, 4-((3-(2-(4-Nitrobenzylidene)hydrazineyl)-3-oxopropyl)amino)-N-(5-methylisoxazol-3-yl)benzene-sulfonamide]	–
185 to 186	Cc1cc(NS(=O)(=O)c2ccc(NCCC(=O)NN=Cc3ccco3)cc2)no1 [Compound 16a, 4-((3-(2-(Furan-2-ylmethylene)hydrazineyl)-3-oxopropyl)amino)-N-(5-methylisoxazol-3-yl)benzene-sulfonamide]	–
215 to 216	Cc1cc(NS(=O)(=O)c2ccc(NCCC(=O)NN=Cc3cccs3)cc2)no1 [Compound 16c, N-(5-methylisoxazol-3-yl)-4-((3-oxo-3-(2-(thiophen-2-ylmethylene)hydrazineyl)propyl)amino)-benzenesulfonamide]	–
195 to 196	Cc1cc(NS(=O)(=O)c2ccc(NCCC(=O)NN=Cc3ccc([N+](=O)[O-])s3)cc2)no1 [Compound 16d, N-(5-methylisoxazol-3-yl)-4-((3-(2-((5-nitrothiophen-2-yl)methylene)hydrazineyl)-3-oxopropyl)amino)-benzenesulfonamide]	about 40%
